From US20250205201A1, “USE OF L-ERGOTHIONEINE FOR ALLEVIATING AND PREVENTING AGE-RELATED LENS DEGENERATION” (NANJING NUTRABUILDING BIO-TECH CO., LTD., priority 2023, published 2025) come the findings set out here.

Type in all cases: in vivo, rat (Sprague-Dawley)
One experiment concerns rats' lenses (opacity). Description: Opacity distribution of lenses in sodium selenite-induced aged rats (ImageJ). The following applies: 2 or 10 mg/kg/d by gavage once daily for 6 months, vs non-supplement group. As to the method: Ten-day-old suckling rats (Sprague-Dawley, SD) were maintained under the barrier conditions in a temperature-controlled environment and fed a commercial mouse chow. All rat pups received a single subcutaneous injection of sodium selenite (20 μmol/kg body weight) on postpartum day 11. The opacity distribution (by surface plot and plot profile) of the rats' lenses were determined from the captured images by ImageJ analysis software after feeding 7 days. Testing opacity distribution aimed to show whether the formation of age-related lens degeneration is successful. The rats were then injected of sodium selenite every two weeks. And then these induced successfully rats were fed a commercial mouse chow for 15 months if succeeding. Then these induced successfully rats were randomly divided into three groups: (1) non-supplement group (Group 1, Con, n=10); (2) L-ergothioncine supplement group with low dosage (Group 2, L-ergothioneine, 2 mg/kg/d, n=10); (3) L-ergothioncine supplement group with high dosage (Group 3, L-ergothioneine, 10 mg/kg/d, n=10). All rats were administered L-ergothioneine for once daily by gavage in normal saline solution for 6 months. The opacity distribution (by surface plot and plot profile) of the rats' lenses were observed from the captured images by ImageJ analysis software at the end of this study.

Experiment [1] relates to intracellular chronic reactive oxygen species (ROS) in lens epithelial cells (LEC). Description: Cytosolic ROS level in isolated rat lenses (H2-DCFH-DA staining) after 6 months of supplementation. Conditions: FIG. 1. As to the method:
(§1) Ten-day-old suckling rats (Sprague-Dawley, SD) were maintained under the barrier conditions in a temperature-controlled environment and fed a commercial mouse chow. All rat pups received a single subcutaneous injection of sodium selenite (20 μmol/kg body weight) on postpartum day 11. The opacity distribution (by surface plot and plot profile) of the rats' lenses were determined from the captured images by ImageJ analysis software after feeding 7 days. Testing opacity distribution aimed to show whether the formation of age-related lens degeneration is successful. The rats were then injected of sodium selenite every two weeks. And then these induced successfully rats were fed a commercial mouse chow for 15 months if succeeding.
Then these induced successfully rats were randomly divided into three groups: (1) non-supplement group (Group 1, Con, n=10); (2) L-ergothioncine supplement group with low dosage (Group 2, L-ergothioneine, 2 mg/kg/d, n=10); (3) L-ergothioncine supplement group with high dosage (Group 3, L-ergothioneine, 10 mg/kg/d, n=10). All rats were administered L-ergothioneine for once daily by gavage in normal saline solution for 6 months. The opacity distribution (by surface plot and plot profile) of the rats' lenses were observed from the captured images by ImageJ analysis software at the end of this study. […]

The next experiment has as its system Nrf2. Description: Nrf2 mRNA level in LECs by real-time PCR after 6 months of supplementation. The following applies: FIG. 2. As to the method: as §1, with “succeeding. […]” for “succeeding.”
Nrf2 dependent antioxidant protection system plays a crucial role in scavenging ROS generated during various biochemical reactions. […] Real-time PCR was measured and performed with the following primers: Nrf2 forward 5′-[…]-3′. RNA samples were reverse-transcribed to cDNA and subjected to quantitative PCR, performed with a Light Cycler 96 Real-Time PCR System using the AceQ qPCR SYBR Green Master Mix. […]
A general note: In qPCR the cycle at which signal appears reflects the starting amount.

As to `C[N+](C)(C)[C@@H](Cc1c[nH]c(=S)[nH]1)C(=O)[O-]` [ergothioneine, L-ergothioneine], the “opacity of lens (opacity distribution by surface plot and plot profile)” value in the experiment with rats' lenses (opacity) was “effectively ameliorate or alleviate the opacity of lens”. In addition, the “efficacy in ROS scavenging, high-dose group compared to low-dose group” value in experiment [1] (10 mg/kg/d vs 2 mg/kg/d by gavage for 6 months) was “approximately double”. In addition, in experiment [1] (2 and 10 mg/kg/d by gavage for 6 months), the “reduction of intracellular chronic ROS levels in LEC compared to the non-supplementation group” value is given as “more than 25%”. Moreover, in the experiment with Nrf2 (high-dose group, 10 mg/kg/d by gavage for 6 months), the “increase of Nrf2 mRNA level in LECs over placebo” value is “around 180%”. Further, in the experiment on Nrf2 (low-dose group, 2 mg/kg/d by gavage for 6 months), the “increase of Nrf2 mRNA level in LECs compared to placebo” value is reported as roughly 50%.
